Reference: paper PMC6736360, “P-Glycoprotein–Mediated Efflux Reduces the In Vivo Efficacy of a Therapeutic Targeting the Gastrointestinal Parasite Cryptosporidium” (The Journal of Infectious Diseases, 2019)
Converted amounts (≈) assume the structure as drawn. “Also recorded” adds a separate entry of the source. Like-named read-outs stand apart in the source and are kept apart here.

Tests used:
C. parvum = test: IFN-γ KO mouse model of Cryptosporidium infection; type: in vivo, mice; details: for Effect of elacridar coadministration on in vivo efficacy: IFN-γ KO mice, once daily for 5 days
Method: Efficacy in female IFN-γ KO mice (B6.129S7-Ifngtm1Ts/J; Jackson Laboratories) aged 8–10 weeks was evaluated as previously described. Beginning on day 6 after infection, mice were dosed with 30 mg/kg BKI1318 suspended in 0.2 mL of vehicle, 15 mg/kg elacridar in 0.1 mL of vehicle followed 15 minutes later by 30 mg/kg BKI1318 in 0.1 mL of vehicle, or 0.2 mL of vehicle only once daily for 5 days. Fecal specimens were collected daily from each group and weighed. Each fecal sample was checked for luminescence on the day of collection, and the number of relative light units was determined and normalized to fecal sample weights.

[1] = In vitro solubility at pH 2 and 6.5; type: physicochemical
Method: Figure 1. Structures, in vitro efficacy, and physicochemical properties of bumped kinase inhibitors (BKIs). […] Solubilities for each BKI were measured at pH 2 and 6.5, to represent the stomach and small intestinal environments, respectively. The human effective permeability (Peff) was predicted as described in Materials and Methods.

[2] = Caco-2 trans-well apparent permeability assay; type: in vitro ADME; details: human, pH 7.4, Caco-2, 5 µM
Method: To initially characterize the permeability of BKIs 1294, 1369, and 1318, the software MedChem Designer (Simulations +, Lancaster, CA) was used to predict the Peff. The in vitro apparent permeability (Papp) was carried out by Absorption Systems LP (Exton, PA) with a Caco-2 trans-well assay. Caco-2 cells (clone C2BBe1) were obtained from American Type Culture Collection (Manassas, VA) were grown to confluence on collagen-coated, microporous membranes in 12-well assay plates. The permeability assay buffer was Hanks’ balanced salt solution (HBSS) containing 10 mM HEPES and 15 mM glucose at a pH of 7.4. The buffer in the receiver chamber also contained 1% bovine serum albumin. The dosing solution concentration was 5 µM BKI in assay buffer, and the cell monolayers were dosed on the apical side (A?B) or basolateral side (B?A) and incubated at 37°C with 5% CO2 in a humidified incubator. After 120 minutes, samples were taken from the donor and receiver chambers in duplicate. The Papp was calculated with equation (1) and the percent recovery with equation (2).
Papp = (dCr/dt) × Vr/(A × CA) (1)
Percent Recovery = 100 × ((Vr × Cr^final) + (Vd × Cd^final))/(Vd × […]) (2)
where dCr/dt is the slope of the cumulative concentration in the receiver compartment versus time in µM s^-1; Vr is the volume of the receiver compartment in cm^3; Vd is the volume of the donor compartment in cm^3; A is the area of the insert (1.13 cm^2 for 12-well); CA is the average of the nominal dosing concentration and the measured 120 minute donor concentration in µM; CN is the nominal concentration of the dosing solution in µM; Cr^final is the cumulative receiver concentration in µM at the end of the incubation period; Cd^final is the concentration of the donor in µM at the end of the incubation period.
(§1) To ensure no damage was inflicted to the cell monolayers during the flux period, lucifer yellow flux was also measured post-experimentally for each monolayer. To determine whether BKIs 1294, 1369, and 1318 were substrates of P-gp in vitro, P-gp efflux was characterized using the Caco-2 permeability assay protocol with a few modifications. The dosing solution concentration was 5 μM of BKI in the assay buffer +/- 1 μM valspodar. Cells were first pre-incubated for 30 minutes with HBSS containing +/- 1 μM valspodar. Cell monolayers were dosed on the apical side (A?B) or basolateral side (B?A), and incubated at 37°C with 5% CO2 in a humidified incubator. Samples were taken from the donor and receiver chambers at 120 minutes. Each determination was performed in duplicate.

[3] = Mouse oral plasma pharmacokinetics with or without elacridar; type: in vivo, mice; details: for AUC(0-inf) / Cmax / Tmax: mouse, plasma, po, mouse plasma, oral, 1369 60 mg/kg, 1318 50 mg/kg
Method: Mouse oral pharmacokinetic (PK) studies were performed as previously described^1. Briefly, blood samples were taken by tail bleeding into heparinized tubes at designated time points and centrifuged to obtain plasma. The samples were frozen and stored at -20°C until extraction and analysis. PK calculations of Tmax, Cmax, AUC, oral clearance, and half-life were performed using Pharsight Phoenix WinNonlin software (Certara, St. Louis, MO).

Cryptosporidium = system: Cryptosporidium; design: method as in PMID 28329187; details: cited from earlier work
Cryptosporidium parvum = test: C. parvum growth inhibition, nonpolarized HCT-8 coculture assay; type: cell-based; details: Cryptosporidium parvum
Description: Information regarding C. parvum growth inhibition by BKIs, the hollow fiber model, liquid chromatography–tandem mass spectrometry (LC-MS/MS) methods, and the interferon γ (IFN-γ) knockout (KO) mouse model of C. parvum infection has been described in detail previously [[15], [20–23]]. Information on BKI permeability, LC-MS/MS quantification of elacridar, and quantification of Cryptosporidium by polymerase chain reaction analysis is described in the Supplementary Materials. Unless noted otherwise, statistical significance was determined with an unpaired Student t test, using a significance level of 0.05.
To evaluate the potential impact of P-gp efflux on BKI1318 in vitro efficacy, in vitro assays with polarized and nonpolarized HCT-8 cells were evaluated. The nonpolarized HCT-8 coculture assay to screen anti-Cryptosporidium drug candidates has been previously reported by us in detail. […] Based on the reported elacridar half maximal inhibitor concentration for the inhibition of P-gp, the P-gp activity was predicted to be reduced with both elacridar concentrations. […] Elacridar alone had no effect on C. parvum levels.

P-gp = biological target: T1, P-gp (Homo sapiens, UniProt P08183); test: Caco-2 P-gp efflux assay +/- valspodar; type: in vitro ADME; details: for P-gp Substrate Classification: Caco-2
T1 construct: endogenous in cells; host or cells: Caco-2 cells (clone C2BBe1, ATCC); assay run by Absorption Systems LP
T1 sequence (P08183 whole entry): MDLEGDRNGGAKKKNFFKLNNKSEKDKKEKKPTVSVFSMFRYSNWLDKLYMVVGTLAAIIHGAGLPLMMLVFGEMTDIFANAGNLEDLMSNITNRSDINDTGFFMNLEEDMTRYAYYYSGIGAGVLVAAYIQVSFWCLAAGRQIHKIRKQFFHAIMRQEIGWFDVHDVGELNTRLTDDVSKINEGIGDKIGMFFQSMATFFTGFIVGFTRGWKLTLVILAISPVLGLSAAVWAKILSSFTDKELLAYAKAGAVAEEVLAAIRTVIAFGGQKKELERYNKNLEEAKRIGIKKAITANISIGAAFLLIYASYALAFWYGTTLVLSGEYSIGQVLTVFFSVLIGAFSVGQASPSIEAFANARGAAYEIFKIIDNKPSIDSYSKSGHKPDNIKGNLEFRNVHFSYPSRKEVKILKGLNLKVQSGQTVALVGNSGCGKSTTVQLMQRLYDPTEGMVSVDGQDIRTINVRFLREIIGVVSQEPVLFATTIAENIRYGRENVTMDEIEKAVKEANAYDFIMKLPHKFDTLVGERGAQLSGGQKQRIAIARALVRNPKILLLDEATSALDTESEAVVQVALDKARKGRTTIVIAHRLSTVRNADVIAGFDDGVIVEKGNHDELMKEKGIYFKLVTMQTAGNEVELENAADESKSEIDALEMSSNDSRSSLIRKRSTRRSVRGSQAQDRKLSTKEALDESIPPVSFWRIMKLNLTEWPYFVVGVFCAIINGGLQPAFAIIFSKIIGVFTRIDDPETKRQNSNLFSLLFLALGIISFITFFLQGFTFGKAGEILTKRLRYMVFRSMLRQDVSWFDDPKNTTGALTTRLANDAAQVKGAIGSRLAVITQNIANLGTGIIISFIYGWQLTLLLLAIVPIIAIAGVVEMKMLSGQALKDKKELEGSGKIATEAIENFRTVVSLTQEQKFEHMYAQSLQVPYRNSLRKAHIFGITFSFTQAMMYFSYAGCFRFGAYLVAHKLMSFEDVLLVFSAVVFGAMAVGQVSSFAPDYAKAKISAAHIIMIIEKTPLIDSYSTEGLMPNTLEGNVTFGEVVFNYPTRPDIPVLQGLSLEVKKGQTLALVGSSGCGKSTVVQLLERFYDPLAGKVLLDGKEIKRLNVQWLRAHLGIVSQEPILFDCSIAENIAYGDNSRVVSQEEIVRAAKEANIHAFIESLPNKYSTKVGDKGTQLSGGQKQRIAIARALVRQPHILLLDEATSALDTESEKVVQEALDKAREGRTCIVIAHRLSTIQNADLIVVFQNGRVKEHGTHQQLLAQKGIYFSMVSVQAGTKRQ
Description: Given the well-known role of P-gp in the efflux of many diverse drugs, the adenosine triphosphate–binding cassette (ABC) transporter was specifically chosen for initial studies, to identify the transporter responsible for BKI1318’s relatively low Papp. A Caco-2 system with overexpression of P-gp was used to verify the role of P-gp in BKI1318 transport (Supplementary Table 2). […] It should be noted that this experiment characterized the importance of P-gp with a single concentration of BKI1318. The kinetics of BKI1318 transport mediated by P-gp are still unknown, and it is not clear how the fraction of absorption mediated by P-gp transport will change with different concentrations of BKI1318.
as §1

[4] = pH 2, represents stomach, read-out: Solubility (pH 2)
[5] = mice, 50 mg/kg oral, 30 mg/kg elacridar, P < .05
[6] = 30 mg/kg elacridar 15 minutes before, read-out: AUC0-inf w/ Elacridar
[7] = 30 mg/kg elacridar 15 minutes before, read-out: Cmax w/ Elacridar
[8] = 30 mg/kg elacridar 15 minutes before, read-out: Tmax w/ Elacridar
[9] = HCT-8, in vitro, read-out: C. parvum EC50

Row | Structure (SMILES) | Effect of elacridar coadministration on in vivo efficacy (C. parvum) | solubility [1, 4] | Papp A→B at 120 min, 5 µM [2] | Papp B→A at 120 min, 5 µM [2] | AUC(0-inf) [3, 6] | Cmax [3, 7] | Tmax [3, 8] | AUC(0-inf) ([3]; alone, read-out: AUC0-inf) | Cmax ([3]; alone, read-out: Cmax) | Tmax ([3]; alone, read-out: Tmax) | Efficacy in neonatal mouse model of Cryptosporidium infection (Cryptosporidium) | EC50 (Cryptosporidium parvum; [9]) | P-gp Substrate Classification (P-gp) | also measured
1 | CCOc1ccc2cc(-c3nn(CC4CCNCC4)c4ncnc(N)c34)ccc2n1 [BKI1318] | increased the level by which BKI1318 reduced the Cryptosporidium burden; also recorded: improvement in efficacy | > 100 µM | 0.29 ×10⁻⁶ cm/s | 20.3 ×10⁻⁶ cm/s | 12 ± 1.6 µM·h | 1800 nM | 2 h | 6.6 ± 1.7 µM·h | 1000 nM | 2.3 h | efficacious | 3.2 µM | Positive | Reduction in C. parvum oocyst excretion (C. parvum; 60 mg/kg once daily for 5 days, without elacridar): < 1 log; solubility ([1]; pH 6.5, represents small intestine, read-out: Solubility (pH 6.5)): 56 µM (≈ 22.6 µg/mL); efflux ratio at 120 min, 5 µM [2]: 69; Oral clearance with elacridar, fold greater than observed for BKI1369 ([3]; mice): 5 fold; Oral clearance (clearance/bioavailability) with elacridar coadministration ([3]; mice, 50 mg/kg oral, 30 mg/kg elacridar): 207 mL/h; Increase of plasma AUC0–∞ by elacridar coadministration [3, 5]: approximately 2 fold; Increase of plasma Cmax by elacridar coadministration [3, 5]: approximately 2 fold; EC50 (Cryptosporidium parvum; nonpolarized HCT-8 cells, BKI1318 alone, read-out: EC50 (±standard error) against C. parvum): 1.6 ± 1.5 µM; efflux ratio at 120 min, 5 µM (P-gp; human, pH 7.4, Caco-2 with overexpression of P-gp, 5 μM, no inhibitor): 19
2 | CCOc1ccc2cc(-c3nn(CC4CCN(C)CC4)c4ncnc(N)c34)ccc2n1 [BKI1369] | no effect; also recorded: did not affect | > 100 µM | 12.4 ×10⁻⁶ cm/s | 32.7 ×10⁻⁶ cm/s | 91.4 ± 5 µM·h | 4100 ± 300 nM | 4 ± 1.6 h | 75.6 ± 8.9 µM·h | 4200 nM | 2 h | efficacious | 2.3 µM | Negative | Change in plasma pharmacokinetics when elacridar administered before ([3]; mice, 60 mg/kg oral, 30 mg/kg elacridar): not a significant change; also recorded: not significantly different
